≈ marks a conversion by molar mass, not a printed value. Calls of active or inactive are those of the source. The rule behind the calls is not given here. Peptide text beside a SMILES is read from it.
What was measured:
Bel-7402 = assay: Cytotoxicity against human Bel-7402; assay type: functional; conditions: read-out: ED50 (the source's name)
Plasmodium falciparum [1] = assay: Antimalarial activity against Plasmodium falciparum D6; assay type: functional, organism-based
Cryptococcus neoformans = assay: Antifungal activity against Cryptococcus neoformans; assay type: functional, organism-based
[2] = tested on: Human immunodeficiency virus 1; assay: Antiviral activity against HIV1 in human PBM cells; assay type: functional, organism-based
[3] = tested on: Mycobacterium tuberculosis; assay: Antimycobacterial activity against Mycobacterium tuberculosis at 128 ug/mL; assay type: functional
Leishmania donovani = assay: Antileishmanial activity against Leishmania donovani; assay type: functional, organism-based
Microglia = assay: Antiinflammatory activity against rat neonatal microglia; assay type: functional, cell-based
Aspergillus fumigatus = assay: Antifungal activity against Aspergillus fumigatus; assay type: functional, organism-based
Staphylococcus aureus = assay: Antibacterial activity against Staphylococcus aureus; assay type: functional, organism-based
[4] = tested on: Mycobacterium tuberculosis; assay: Antimycobacterial activity against Mycobacterium tuberculosis; assay type: functional, organism-based
Candida albicans = assay: Antifungal activity against Candida albicans; assay type: functional, organism-based
Pseudomonas aeruginosa = assay: Antibacterial activity against Pseudomonas aeruginosa; assay type: functional, organism-based
[5] = tested on: Mycobacterium intracellulare; assay: Antibacterial activity against Mycobacterium intracellular; assay type: functional, organism-based
Plasmodium falciparum [6] = assay: Antimalarial activity against Plasmodium falciparum W2; assay type: functional, organism-based

Row | Structure (SMILES) | EC50 (Bel-7402) [µg/mL] | IC50 (Plasmodium falciparum [1]) [µg/mL] | Activity (Cryptococcus neoformans) | Activity [2] | inhibition at 128 µg/mL [3] [%] | Activity (Leishmania donovani) | Activity (Microglia) | Activity (Aspergillus fumigatus) | Activity (Plasmodium falciparum [1]) | Activity (Staphylococcus aureus) | Activity [4] | Activity (Candida albicans) | Activity (Pseudomonas aeruginosa) | Activity [5] | Activity (Plasmodium falciparum [6]) | IC50 (Cryptococcus neoformans) [µg/mL] | Activity [3]
1 | CC(C)C[C@@H]1NC(=O)[C@H]([C@@H](C)O)NC(=O)[C@@H]2CCCN2C(=O)CNC(=O)[C@H](Cc2ccccc2)NC(=O)[C@@H]2CCCN2C(=O)[C@H](Cc2c[nH]c3ccccc23)NC1=O [PHAKELLISTATIN 13] (cyclo(FGPTLWP)) | < 0.01 |  |  |  |  |  |  |  |  |  |  |  |  |  |  |  | 
2 | Nc1ncc(C2=CCNC(=O)c3[nH]c(Br)c(Br)c32)[nH]1 [STEVENSINE] |  | 1.8 (≈ 4.65 µM) | inactive | inactive | 95 | inactive |  |  |  |  |  |  |  |  |  |  | 
3 | CC[C@H](C)[C@@H]1NC(=O)[C@@H]2CCCN2C(=O)[C@H](Cc2ccccc2)NC(=O)[C@@H]2CCCN2C(=O)[C@@H]2CCCN2C(=O)[C@H](Cc2ccc(O)cc2)NC(=O)[C@@H]2CCCN2C1=O (cyclo(FPIPYPP)) |  |  | inactive | inactive |  |  | inactive | inactive | inactive | inactive | inactive | inactive | inactive | inactive | inactive |  | 
4 | Nc1nc([C@H]2[C@H](CNC(=O)c3cc(Br)c[nH]3)[C@@H](CNC(=O)c3cc(Br)c[nH]3)[C@@H]2c2c[nH]c(N)n2)c[nH]1 [SCEPTRIN] |  |  |  | inactive |  | inactive |  |  |  |  |  |  |  |  |  | 3.5 (≈ 5.64 µM) | inactive
5 | CC[C@H](C)[C@@H]1NC(=O)[C@@H]2CCCN2C(=O)[C@H](Cc2ccc(O)cc2)NC(=O)[C@@H]2CCCN2C(=O)[C@H](CC(C)C)NC(=O)[C@@H]2CCCN2C(=O)[C@H](Cc2ccccc2)NC1=O (cyclo(FPLPYPI)) |  |  | inactive | inactive |  |  | inactive | inactive | inactive | inactive | inactive | inactive | inactive | inactive | inactive |  | 
6 | Nc1ncc(/C=C/CNC(=O)c2cc(Br)c(Br)[nH]2)[nH]1 [OROIDIN] |  | 1.2 (≈ 3.08 µM) | inactive | inactive | 71 | inactive |  |  |  |  |  |  |  |  |  |  | 
